From ChEMBL document CHEMBL1133080, “Substituted 5,7-diphenyl-pyrrolo[2,3d]pyrimidines: potent inhibitors of the tyrosine kinase c-Src” (Bioorg Med Chem Lett, 2000)

Assays:
[1] = molecular target: T1, Epidermal growth factor receptor (Homo sapiens, UniProt P00533); experiment: Tested for inhibition of EGF-receptor tyrosine kinase in intact cells
[2] = molecular target: T1, Epidermal growth factor receptor; experiment: Tested in vitro for inhibition of EGF-receptor tyrosine kinase
[3] = molecular target: Vascular endothelial growth factor receptor 2 (Homo sapiens, UniProt P35968); experiment: Tested in vitro for inhibition of KDR-receptor tyrosine kinase
Sequence of Vascular endothelial growth factor receptor 2 (P35968 whole entry): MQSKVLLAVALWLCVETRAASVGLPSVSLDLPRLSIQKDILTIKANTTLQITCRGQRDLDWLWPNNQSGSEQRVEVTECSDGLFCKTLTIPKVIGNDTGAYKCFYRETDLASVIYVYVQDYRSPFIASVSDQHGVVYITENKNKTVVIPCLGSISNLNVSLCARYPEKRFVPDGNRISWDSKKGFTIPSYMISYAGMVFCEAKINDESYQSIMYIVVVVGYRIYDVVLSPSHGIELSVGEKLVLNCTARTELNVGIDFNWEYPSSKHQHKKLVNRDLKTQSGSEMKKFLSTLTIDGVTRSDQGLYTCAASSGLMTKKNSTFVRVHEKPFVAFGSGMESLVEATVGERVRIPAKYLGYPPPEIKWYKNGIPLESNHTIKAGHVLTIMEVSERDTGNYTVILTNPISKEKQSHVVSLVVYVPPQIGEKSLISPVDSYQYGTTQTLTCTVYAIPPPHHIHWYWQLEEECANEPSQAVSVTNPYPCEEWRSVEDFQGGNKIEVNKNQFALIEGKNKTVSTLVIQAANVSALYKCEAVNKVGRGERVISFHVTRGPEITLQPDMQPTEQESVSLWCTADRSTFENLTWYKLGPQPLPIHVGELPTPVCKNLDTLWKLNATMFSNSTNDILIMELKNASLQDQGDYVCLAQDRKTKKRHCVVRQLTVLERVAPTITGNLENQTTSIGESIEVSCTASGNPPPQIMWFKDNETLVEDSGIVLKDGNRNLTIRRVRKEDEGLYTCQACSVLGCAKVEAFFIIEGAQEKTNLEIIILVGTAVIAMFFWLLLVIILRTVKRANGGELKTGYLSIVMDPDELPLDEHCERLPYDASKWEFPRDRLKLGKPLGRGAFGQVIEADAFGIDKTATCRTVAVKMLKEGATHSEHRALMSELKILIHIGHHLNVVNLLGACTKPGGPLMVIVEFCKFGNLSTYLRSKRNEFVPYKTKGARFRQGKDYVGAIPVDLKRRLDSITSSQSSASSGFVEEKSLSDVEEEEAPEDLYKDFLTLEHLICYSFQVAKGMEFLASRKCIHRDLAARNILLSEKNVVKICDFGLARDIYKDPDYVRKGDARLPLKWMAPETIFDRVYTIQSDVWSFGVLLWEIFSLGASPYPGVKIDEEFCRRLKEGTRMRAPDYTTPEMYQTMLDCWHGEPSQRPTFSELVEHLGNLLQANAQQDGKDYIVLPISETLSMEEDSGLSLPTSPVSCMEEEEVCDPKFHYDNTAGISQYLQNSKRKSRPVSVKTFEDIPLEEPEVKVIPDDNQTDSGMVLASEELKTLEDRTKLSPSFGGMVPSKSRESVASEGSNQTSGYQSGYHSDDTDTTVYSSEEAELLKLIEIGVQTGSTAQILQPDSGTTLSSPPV

[4] = molecular target: Platelet-derived growth factor receptor (Mus musculus, UniProt P05622+P26618); experiment: Inhibition of PDGF-receptor kinase; format: protein-complex assay
[5] = molecular target: T2, Proto-oncogene tyrosine-protein kinase Src (Gallus gallus, UniProt P00523); experiment: Tested for inhibition of protein tyrosine kinase c-Src phosphorylation
[6] = molecular target: Tyrosine-protein kinase CSK (Homo sapiens, UniProt P41240); experiment: Tested for inhibition of protein tyrosine kinase Csk phosphorylation in intact cells; format: cell-based
Sequence of Tyrosine-protein kinase CSK (P41240 whole entry): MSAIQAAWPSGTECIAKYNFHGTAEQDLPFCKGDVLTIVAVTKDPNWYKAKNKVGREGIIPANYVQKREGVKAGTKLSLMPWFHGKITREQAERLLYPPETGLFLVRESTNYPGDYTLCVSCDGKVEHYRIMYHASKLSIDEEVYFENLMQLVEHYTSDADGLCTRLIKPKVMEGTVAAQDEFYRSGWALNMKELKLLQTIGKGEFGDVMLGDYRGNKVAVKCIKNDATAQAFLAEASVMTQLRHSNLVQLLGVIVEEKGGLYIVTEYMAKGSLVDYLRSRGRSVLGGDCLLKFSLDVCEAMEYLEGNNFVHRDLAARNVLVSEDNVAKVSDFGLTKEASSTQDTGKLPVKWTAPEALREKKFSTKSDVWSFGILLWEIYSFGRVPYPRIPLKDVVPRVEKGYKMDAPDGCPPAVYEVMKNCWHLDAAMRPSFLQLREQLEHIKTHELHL

[7] = molecular target: Cyclin-dependent kinase 1 (Homo sapiens, UniProt P06493); experiment: Tested in vitro for inhibition of serine/threonine kinase Cdc2
Sequence of Cyclin-dependent kinase 1 (P06493 whole entry): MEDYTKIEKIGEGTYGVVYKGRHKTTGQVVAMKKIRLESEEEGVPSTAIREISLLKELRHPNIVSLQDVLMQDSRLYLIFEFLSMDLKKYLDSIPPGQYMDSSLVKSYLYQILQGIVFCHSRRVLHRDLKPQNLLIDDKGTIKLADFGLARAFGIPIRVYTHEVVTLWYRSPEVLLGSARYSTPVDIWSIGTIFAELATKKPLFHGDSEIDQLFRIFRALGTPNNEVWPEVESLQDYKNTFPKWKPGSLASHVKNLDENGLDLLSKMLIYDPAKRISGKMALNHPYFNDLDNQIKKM

[8] = molecular target: Tyrosine-protein kinase ABL (Homo sapiens, UniProt P00519+P42684); experiment: Tested in vitro for inhibition of non-receptor tyrosine kinase v-Abl; format: protein assay
[9] = molecular target: Proto-oncogene tyrosine-protein kinase Src (Gallus gallus) (UniProt P00523); experiment: Tested for inhibition of protein tyrosine kinase c-Src phosphorylation in intact cells
[10] = molecular target: T2, Proto-oncogene tyrosine-protein kinase Src; experiment: Inhibition of protein tyrosine kinase c-Src

T1 sequence (P00533 whole entry): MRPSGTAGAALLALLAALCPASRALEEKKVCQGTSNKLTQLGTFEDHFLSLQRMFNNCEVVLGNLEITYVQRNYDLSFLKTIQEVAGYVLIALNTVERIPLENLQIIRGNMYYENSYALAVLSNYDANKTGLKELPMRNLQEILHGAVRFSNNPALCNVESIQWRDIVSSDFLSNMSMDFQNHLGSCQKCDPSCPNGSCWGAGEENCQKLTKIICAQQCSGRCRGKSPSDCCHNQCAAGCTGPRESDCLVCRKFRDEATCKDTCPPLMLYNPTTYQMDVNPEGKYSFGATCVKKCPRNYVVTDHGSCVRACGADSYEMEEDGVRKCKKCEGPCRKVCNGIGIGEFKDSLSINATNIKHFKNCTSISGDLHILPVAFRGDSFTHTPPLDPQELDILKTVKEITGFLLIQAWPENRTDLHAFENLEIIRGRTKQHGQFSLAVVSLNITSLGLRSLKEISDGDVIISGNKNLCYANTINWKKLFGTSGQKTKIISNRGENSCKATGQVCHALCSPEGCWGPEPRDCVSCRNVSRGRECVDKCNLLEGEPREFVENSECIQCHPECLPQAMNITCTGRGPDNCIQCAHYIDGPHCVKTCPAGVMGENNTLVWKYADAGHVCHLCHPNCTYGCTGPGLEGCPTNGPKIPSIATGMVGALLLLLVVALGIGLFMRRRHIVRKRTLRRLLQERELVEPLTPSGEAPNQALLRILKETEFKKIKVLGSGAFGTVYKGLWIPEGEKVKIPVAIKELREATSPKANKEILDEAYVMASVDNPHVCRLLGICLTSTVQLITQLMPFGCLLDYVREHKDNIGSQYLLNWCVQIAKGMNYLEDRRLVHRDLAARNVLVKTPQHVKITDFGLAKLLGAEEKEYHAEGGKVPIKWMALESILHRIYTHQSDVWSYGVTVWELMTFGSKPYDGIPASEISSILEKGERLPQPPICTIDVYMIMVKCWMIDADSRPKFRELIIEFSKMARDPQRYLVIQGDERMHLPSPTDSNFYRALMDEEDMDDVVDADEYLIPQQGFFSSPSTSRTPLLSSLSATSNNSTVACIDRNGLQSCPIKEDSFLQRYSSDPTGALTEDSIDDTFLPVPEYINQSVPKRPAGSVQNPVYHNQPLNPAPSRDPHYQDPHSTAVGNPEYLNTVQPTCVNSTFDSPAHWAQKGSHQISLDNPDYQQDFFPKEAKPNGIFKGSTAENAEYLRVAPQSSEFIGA

Row | SMILES | IC50 [1] [µM] | IC50 [2] [nM] | IC50 [3] [nM] | IC50 [4] [nM] | IC50 [5] [nM] | IC50 [6] [µM] | IC50 [7] [µM] | IC50 [8] [µM] | IC50 [9] [µM] | IC50 [10] [nM]
1 | COc1cccc(-c2cn(-c3ccc(CCN(C)CCO)cc3)c3ncnc(N)c23)c1 | 10 | 300 | > 1000 | 300 | 30 | > 5 | > 10 | 0.3 | 0.2 | –
2 | Nc1ncnc2c1c(-c1ccccc1)nn2-c1ccccc1 | – | – | – | – | – | – | – | – | – | 500
3 | Nc1ncnc2c1c(-c1ccccc1)cn2-c1ccccc1 | – | – | – | – | 100 | > 5 | 54 | 0.02 | 3.5 | –
4 | COc1cccc(-c2cn(-c3ccccc3)c3ncnc(N)c23)c1 | – | – | > 1000 | 2500 | 50 | > 5 | 43 | 0.06 | 3.3 | –
5 | Nc1ncnc2c1c(-c1ccccc1)cn2-c1ccc(CNCCO)cc1 | – | 1400 | – | – | 30 | 4.3 | 82.5 | 1 | 0.7 | –
6 | O=c1[nH]cnc2c1c(-c1ccccc1)cn2-c1ccccc1 | – | – | – | – | 10000 | – | – | – | – | –
7 | Nc1ncnc2c1c(-c1ccccc1)cn2-c1cccc(CO)c1 | 12 | 600 | – | 10000 | 60 | > 5 | 47 | 0.2 | > 5 | –
8 | Cc1ccccc1-c1cn(-c2ccccc2)c2ncnc(N)c12 | – | 2650 | – | – | 6000 | – | 90 | – | – | –
9 | COc1cccc(-c2cn(-c3ccc(CC(=O)NCCO)cc3)c3ncnc(N)c23)c1 | – | 800 | > 1000 | – | 20 | > 5 | > 10 | 0.22 | 3.9 | –
10 | Nc1ncnc2c1c(-c1cccc(Cl)c1)cn2-c1ccccc1 | – | 700 | 1000 | – | 200 | – | > 100 | 0.6 | – | –
11 | Nc1ncnc2c1c(-c1ccccc1)cn2-c1ccccc1CNCCO | – | 6400 | – | – | 5000 | – | > 10 | – | – | –
12 | Nc1ncnc2c1c(-c1ccccc1)cn2-c1cccc(CNCCO)c1 | – | 3400 | 3600 | – | 10 | 5 | > 10 | – | 4 | –
13 | COc1ccc(-c2cn(-c3ccccc3)c3ncnc(N)c23)cc1 | – | 350 | 200 | – | 150 | – | > 10 | 0.4 | – | –
14 | COc1cccc(-c2cn(-c3cccc(CO)c3)c3ncnc(N)c23)c1 | – | 800 | > 1000 | – | 60 | – | 33 | 0.05 | – | –
15 | CNc1ncnc2c1c(-c1ccccc1)cn2-c1ccccc1 | – | 31000 | – | – | > 10000 | – | > 10 | > 10 | – | –
16 | Nc1ncnc2c1c(-c1ccccc1)cn2-c1ccc(CO)cc1 | – | 700 | 600 | – | 20 | – | 30 | 0.07 | – | –
17 | CCOC(=O)c1ccc(-c2cn(-c3ccccc3)c3ncnc(N)c23)cc1 | – | 1300 | 1100 | – | 10000 | – | > 10 | > 10 | – | –
18 | COc1cccc(-c2cn(-c3ccc(CNCCO)cc3)c3ncnc(N)c23)c1 | 6.4 | 300 | > 1000 | 600 | 30 | > 5 | > 10 | 0.23 | 0.5 | –
19 | Clc1ncnc2c1c(-c1ccccc1)cn2-c1ccccc1 | – | – | – | – | 8000 | – | – | – | – | –
20 | Nc1ncnc2c1c(-c1ccccc1)cn2-c1ccccc1CO | – | 1100 | – | – | 300 | – | > 10 | 3.4 | – | –
